Literature values in patent US6455592B1, “Use of hydrophilic penetration agents in dermatological compositions for the treatment of onychomycoses, and corresponding compositions” (Novartis AG, priority 1991, dated 2002).
Counter-ions that a name gives are not always drawn.

Settings: oral treatment with 250 mg/day over 8 weeks

CN(C/C=C/C#CC(C)(C)C)Cc1cccc2ccccc12 [terbinafine-HCl, Terbinafine hydrochloride]
concentration of terbinafine-HCl in the nails: 0.4±0.15 ng of terbinafine-HCl per mg of nail material
